Some test systems named below: 786-0 renal; CCRF-CEM leukemia; COLO 205 colon; HCT-116 colon; IGROV1 ovarian; K-562 leukemia; PC-3 prostate; SK-MEL-2 melanoma; SR leukemia; U251 CNS.
Common to all, as to assay: NCI-60 cell line screen, 48 h

Values joined by “and” are separate entries in the source; they are usually repeats but may differ in a detail not shown here. Identical values can stand only once.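 A five-concentration, 48-hour dose response in 96-well plates underlies each endpoint, interpolated linearly between surrounding concentrations. Abbreviation: GI50, concentration required for 50% inhibition of growth. Definition used: TGI = concentration required for complete inhibition of growth.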 A value given as a limit tells only on which side of the number the result lay.

Take `C[C@@]12CCC[C@@](C)(C(=O)O)C1CC[C@]13C[C@@](O)(CO)[C@](O)(CCC12)C3` (stereo partly drawn): the GI50 with 786-0 renal, with CCRF-CEM leukemia, in the experiment with COLO 205 colon, in the experiment with HCT-116 colon, in the experiment on IGROV1 ovarian and in the experiment on K-562 leukemia was greater than 100 µM in each case. In addition, the GI50 was greater than 100 µM in the experiment on PC-3 prostate, greater than 100 µM in the experiment on SK-MEL-2 melanoma, 55.3 µM with SR leukemia and greater than 100 µM in the experiment with U251 CNS. The TGI with 786-0 renal, in the experiment with CCRF-CEM leukemia, in the experiment on COLO 205 colon, in the experiment with HCT-116 colon, with IGROV1 ovarian and in the experiment with K-562 leukemia was greater than 100 µM throughout. Besides, the TGI in the experiment on PC-3 prostate, in the experiment on SK-MEL-2 melanoma, with SR leukemia and with U251 CNS was greater than 100 µM each time.

As for `CNC(=O)c1ccccc1Nc1nc(Nc2cc(OC)c(OC)c(OC)c2)ncc1Br`, the GI50 was 0.0234 µM in the experiment with 786-0 renal; 0.0523 µM in the experiment with CCRF-CEM leukemia; 0.0151 µM in the experiment on COLO 205 colon; 0.0874 µM with K-562 leukemia; 0.131 µM in the experiment on PC-3 prostate; 0.0171 µM in the experiment with SK-MEL-2 melanoma. Also, the GI50 in the experiment with SR leukemia is 0.0254 µM; with U251 CNS, 0.0426 µM. Further, the TGI in the experiment with 786-0 renal is 1.85 µM; in the experiment with CCRF-CEM leukemia it was greater than 19.9 µM; in the experiment on COLO 205 colon, 0.0591 µM; in the experiment on K-562 leukemia, greater than 38.9 µM; with PC-3 prostate it was 10.9 µM; in the experiment with SK-MEL-2 melanoma, 0.0499 µM. Further, in the experiment on U251 CNS, the TGI was found to be 3.38 µM.

For the compound `CCC/C(=N\NC(=S)N1CC2CCC(CC2)C1)c1ccccn1`, the GI50 in the experiment on 786-0 renal is 1.25 µM; with COLO 205 colon, 0.0138 µM; with IGROV1 ovarian, 0.372 µM; in the experiment with SK-MEL-2 melanoma, 1.02 µM; in the experiment with U251 CNS, 0.142 µM. Also, the TGI in the experiment on 786-0 renal was 1.19 µM and 2.55 µM; with COLO 205 colon, 0.0997 µM and 0.281 µM; in the experiment on HCT-116 colon, 0.86 µM; with IGROV1 ovarian, 1.4 µM and 2.21 µM; in the experiment with K-562 leukemia it was 1.23 µM; with PC-3 prostate, 1.39 µM. For the same compound, the TGI with SR leukemia is 2.77 µM; in the experiment on U251 CNS, 0.627 µM and 1.38 µM.

Turning to `CCC[CH2][Sn]1([CH2]CCC)[O]CC(CN(C)Cc2ccccc2)[O]1` (stereo not drawn), the GI50 is 4.41 µM with 786-0 renal; 2.37 µM in the experiment with CCRF-CEM leukemia; 5.31 µM in the experiment on COLO 205 colon; 15.7 µM with HCT-116 colon; 14.8 µM in the experiment on IGROV1 ovarian; 2.76 µM with K-562 leukemia. In addition, the GI50 was 4.27 µM in the experiment with SK-MEL-2 melanoma, 4.31 µM with SR leukemia and 5.75 µM in the experiment on U251 CNS. Further, the TGI turned out to be 16.4 µM in the experiment on 786-0 renal; 8.09 µM in the experiment on CCRF-CEM leukemia; 16 µM with COLO 205 colon; 29.2 µM in the experiment with HCT-116 colon; 30.5 µM in the experiment with IGROV1 ovarian; 12.9 µM in the experiment on K-562 leukemia. Also, the TGI was 15.9 µM in the experiment with SK-MEL-2 melanoma, 23.7 µM in the experiment with SR leukemia and 17.8 µM in the experiment on U251 CNS.

As to `O=C(c1ccccc1)C1OC12C(=O)Nc1c(Cl)cc(Cl)cc12` (stereo not drawn), the TGI was greater than 100 µM in the experiment with 786-0 renal; 27.2 µM in the experiment with CCRF-CEM leukemia; 41 µM in the experiment on COLO 205 colon; greater than 71.9 µM in the experiment with HCT-116 colon; greater than 100 µM in the experiment on IGROV1 ovarian; 46.1 µM with K-562 leukemia. For the same compound, the TGI was greater than 100 µM in the experiment with SK-MEL-2 melanoma, 31.1 µM in the experiment with SR leukemia and greater than 100 µM in the experiment on U251 CNS.

Consider `CC(C)(C)c1cc(-n2c(-c3ccc(Cl)cc3)nc3cc(C(=O)Nc4ccc(Cl)cc4)ccc32)n[nH]1`, for which the GI50 is 6.18 µM in the experiment with 786-0 renal; 4.71 µM in the experiment with COLO 205 colon; 3.84 µM in the experiment with HCT-116 colon; 5.65 µM in the experiment on IGROV1 ovarian; 3.29 µM with PC-3 prostate; 2.89 µM in the experiment with SK-MEL-2 melanoma. The GI50 in the experiment with SR leukemia is greater than 100 µM; with U251 CNS, 6.63 µM. The TGI is greater than 100 µM with 786-0 renal; greater than 100 µM with COLO 205 colon; greater than 100 µM in the experiment on HCT-116 colon; greater than 100 µM in the experiment with IGROV1 ovarian; greater than 100 µM in the experiment with PC-3 prostate; 9.58 µM in the experiment on SK-MEL-2 melanoma. The TGI with SR leukemia and in the experiment on U251 CNS was greater than 100 µM in each case.

Regarding `Nc1nc2c(ncn2C2C=CC(CO)C2)c(=O)[nH]1` (stereo not drawn), the TGI in the experiment on 786-0 renal, with COLO 205 colon, in the experiment with HCT-116 colon, in the experiment on IGROV1 ovarian, in the experiment on K-562 leukemia and in the experiment with PC-3 prostate was greater than 100 µM in each case. The TGI with SK-MEL-2 melanoma, with SR leukemia and in the experiment on U251 CNS was greater than 100 µM each time.

Consider `Oc1ccc(C(c2ccc(O)cc2)c2ccc(O)cc2)cc1`, for which the TGI with 786-0 renal was 34.8 µM; in the experiment with CCRF-CEM leukemia, 92.6 µM; in the experiment with COLO 205 colon, 20.8 µM; with HCT-116 colon it was 35 µM; in the experiment on IGROV1 ovarian, 35.2 µM; in the experiment with PC-3 prostate, 66.5 µM. Also, the results for the TGI in the experiment on SK-MEL-2 melanoma, in the experiment on SR leukemia and with U251 CNS were 55 µM, 75.3 µM and 83.7 µM, respectively.

For `O=C1C=CC(=Nc2cc(Br)c(O)c(Br)c2)C=C1`, the GI50 was 23.6 µM in the experiment on 786-0 renal; 3.53 µM in the experiment with CCRF-CEM leukemia; 20 µM in the experiment with COLO 205 colon; 11.5 µM with HCT-116 colon; 22.7 µM with IGROV1 ovarian; 5.83 µM in the experiment on K-562 leukemia. The GI50 in the experiment on SK-MEL-2 melanoma is 23 µM; in the experiment with SR leukemia it was 2.13 µM; in the experiment on U251 CNS, 17.8 µM. For the same compound, the TGI in the experiment with 786-0 renal was 60.6 µM; with CCRF-CEM leukemia, greater than 100 µM; with COLO 205 colon it was 52 µM; in the experiment on HCT-116 colon it was 26.3 µM; in the experiment with IGROV1 ovarian it was 68 µM; in the experiment with K-562 leukemia, greater than 100 µM. The values for the TGI in the experiment with SK-MEL-2 melanoma, with SR leukemia and with U251 CNS were 75.2 µM, greater than 100 µM and 99.1 µM, respectively.

Take `C[As](C)SCC(COC(=O)C(Cl)c1ccccc1)OC(=O)C(Cl)c1ccccc1` (stereo not drawn): the GI50 in the experiment on 786-0 renal was 0.884 µM; with CCRF-CEM leukemia, 0.339 µM; in the experiment with COLO 205 colon it was 1.43 µM; in the experiment on HCT-116 colon, 0.439 µM; with IGROV1 ovarian, 1.93 µM; with K-562 leukemia, 0.147 µM. The figures for the GI50 with PC-3 prostate, in the experiment on SR leukemia and with U251 CNS were 0.74 µM, 1.41 µM and 3.42 µM, respectively. Besides, the TGI with 786-0 renal is 8.05 µM; in the experiment on CCRF-CEM leukemia, 2.14 µM; in the experiment on HCT-116 colon it was 2.67 µM; in the experiment with IGROV1 ovarian, greater than 42.6 µM; with PC-3 prostate, 19.4 µM; in the experiment with SR leukemia, 5.84 µM. In the experiment on U251 CNS, this compound registered a TGI of 31.6 µM.

Source of the values: PubChem BioAssay (NCI).
